Assay results published in US7491707B1, “Synthetic lipid-a-analogs and uses thereof” (Biomira, Inc., priority 1999, dated 2009).
“Also recorded” adds a separate entry of the source.

Legend:
[1] = system: immune response to MUC1-based lipopeptide BP1-148; experiment: Adjuvanticity of Lipid-A analogs in liposomal vaccine with MUC1 lipopeptide BP1-148 (T-cell blastogenesis and IFN-γ production); format: in vivo, mice; conditions: in words; liposomal formulations with BP1-148 in mice, FIGS. 31-33
Description: Liposome formulations have been used to evaluate the adjuvant properties of various synthetic Lipid-A structures and the immune responses to a synthetic lipopeptide antigen BP-148, H2N-[…](Pal)G-OH (FIG. 34), a modified 25-amino-acid sequence derived from tumor-associated MUC1 mucin. The commercially available Lipid-A product, which is currently under clinical evaluation as an adjuvant for vaccine programs, was used for comparison. The natural Lipid-A product, purchased from AVANTI, contained a mixture of Lipid-A analogs extracted from Salmonella bacterial cell wall and is designated as Natural Lipid-A in this invention.
Thus, the liposomal formulations containing the synthetic lipopeptide antigen, BP1-148, and Lipid-A analogs 33, 48, 54, 58, 70, 77, 86, 94, 102, 104 or Natural Lipid-A, were used to immunize mice to measure their immune response in terms of T-cell blastogenesis and interferon-gamma (IFN-γ) production. The compounds were tested in three groups at different time and their preliminary results are shown separately in FIGS. 31-33. As the variations are attributed to different factors such as animal groups and experimental factors, the data from different groups will not be compared.
(§1) Groups of C57-Black mice were immunized subcutaneously with the liposomal vaccine containing 40 μg of MUC1-based lipopeptide BP1-148 (FIG. 34), which has the peptide sequence of H2N-[…](Pal) G-OH, and 20 μg of Lipid-A analog per dose. Nine days after vaccine injection mice were sacrificed and lymphocytes were taken from the draining lymph nodes (local response) or from the spleens (systemic response) to determine the immune response in each group. The lymphocytes taken from immunized mice were incubated in in vitro cultures in the presence of MUC1-based boosting antigen BP1-151, which has the peptide sequence H2N-[…]-OH.

T-cell = T-cell proliferation (3H thymidine incorporation) of lymph node lymphocytes from mice immunized with MUC1-based liposomal vaccine adjuvanted with Lipid-A analog; format: in vivo, C57-Black mice; conditions: for T-cell-Proliferation (CPM): s.c. liposomal vaccine 40 μg BP1-148 + 20 μg Lipid-A analog per dose, nine days after injection, boosting antigen BP1-151; for T-cell blastogenesis: in words, liposomal vaccine formulations in mice, FIG. 31-FIG. 33
Description: (§2) Typically, the liposomal formulation was composed of 400 μg of MUC1-based lipopeptide BP1-148, H2N-[…](Pal)G-OH, 200 μg of Lipid-A analog, 6.94 mg of cholesterol, 1.46 mg of dimyristoyl phosphatidylglycerol ([…]) and 11.62 mg of dipalmitoyl phosphatidylcholine (DPPC) per 1 ml of saline (0.9% NaCl solution).
(§3) The liposomal constructs were formulated by first dissolving the phospholipids, cholesterol and Lipid A analog in tert-butanol at about 53° C. Lipopeptide and water (5%, v/v) were then added to the tert-butanol solution. The resulting clear 95% tert-butanol solution was injected into about 4 volumes of rapidly stirred water at about 50° C., using a glass syringe with an 18-gauge needle. The small unilamellar vesicles (SUV) formed in this process were cooled, sterilized by filtration through a 0.22 μm membrane filter, filled into vials and lyophilized. The dry powder was re-hydrated with sterile saline before injection, resulting in the formation of multilamellar large vesicles (MLV). The liposomes formed are used to immunize mice.
as §1
T-cell proliferation was evaluated using a standard ^3H thymidine incorporation assay. Briefly, nylon wool passed inguinal lymph node lymphocytes from each mouse were added to a culture containing 106 native mitomycin C treated syngeneic splenocytes, which serves as antigen presenting cells (APCs). To each well 20 μg of MUC1-based boosting peptide BP1-151, H2N-[…]-OH (single letter amino acid code, Table 8), was added for positive control; and cultures containing no antigen or peptide BP1-72, which has the peptide sequence H2N-[…]-OH, were used as negative control. The culture was incubated for 72 h in a total volume of 250 μl well, followed by adding 1 μCi of ^3H-thymidine in a volume of 50 μl. The plates were incubated for an additional 18-20 h. Cells were harvested and [^3H]dTh incorporation was measured by liquid scintillation counter. T-cell proliferation results corresponding to various liposomal vaccines adjuvanted, with different Lipid-A analogs are summarized in Tables 1-Table 3 and FIG. 31-FIG. 33.

Interferon-gamma (IFN-γ) = Interferon-gamma (IFN-γ) production in cell culture supernatants by ELISA, lymphocytes of mice immunized with adjuvanted MUC1 liposomal vaccine; format: in vivo, C57-Black mice; conditions: for Interferon-gamma (IFN-γ, pg/ml): s.c. liposomal vaccine 40 μg BP1-148 + 20 μg Lipid-A analog per dose, nine days after injection; for interferon-gamma production: in words, liposomal vaccine formulations in mice, FIG. 31-FIG. 33
Description: as §2, §3, §1
Interferon-gamma (IFN-γ) levels were determined in the cell culture supernatants using enzyme-linked immunoabsorbent assay (ELISA). 96-Well plates were coated with 50 μl of catcher Mabs in 50 μl of R4.6AZ at 37° C. for 30 min. The plates were then washed and incubated with test samples for 45 min. After two washes the second biotinylated antibody, XMG1.2 was added. After washing, peroxidase-conjugated streptavidin was added and incubated again for 30 min. Finally, 100 μl of horseradish peroxidase (HRPO) substrate solution was added. The optical density was measured with a Thermomax ELISA reader at 405 nm wavelength in kinetic mode for 10 min. The interferon-gamma (IFN-γ) levels corresponding to various Lipid-A analogs are shown in Table 1-Table 3 and FIG. 31-FIG. 33.

SMILES | adjuvant activity compared to Natural Lipid-A (Lipid-A preparation of bacterial origin) [1] | T-cell-Proliferation (CPM) (T-cell; Table 1, first test group) | T-cell-Proliferation (CPM) (T-cell; Table 2, second test group) | T-cell blastogenesis (T-cell) | Interferon-gamma (IFN-γ, pg/ml) (Interferon-gamma (IFN-γ); Table 1, first test group) [pg/mL] | Interferon-gamma (IFN-γ, pg/ml) (Interferon-gamma (IFN-γ); Table 2, second test group) [pg/mL] | interferon-gamma production (Interferon-gamma (IFN-γ)) | T-cell-Proliferation (CPM) (T-cell; Table 3, third test group) | Interferon-gamma (IFN-γ, pg/ml) (Interferon-gamma (IFN-γ); Table 3, third test group) [pg/mL]
CCCCCCCCCCCCCCCC(=O)O[C@H](CCCCCCCCCCC)CC(=O)N[C@H]1C(O)O[C@H](CO[C@@H]2O[C@H](CO)[C@@H](OP(=O)(O)O)[C@H](OC(=O)C[C@@H](CCCCCCCCCCC)OC(=O)CCCCCCCCCCCCC)[C@H]2NC(=O)C[C@@H](CCCCCCCCCCC)OC(=O)CCCCCCCCCCC)[C@@H](O)[C@@H]1O (stereo partly drawn) [Compound 48, 2-Deoxy-6-O-{2-deoxy-2-[(3R)-3-dodecanoyloxytetradecanamido]-4-O-phosphono-3-O-[(3R)-3-tetradecanoyloxytetradecanoyl]-β-D-glucopyranosyl}-2-[(3R)-3-hexadecanoyloxytetradecanamido]-α/β-D-glucopyranose] | as effective | 14112 | 28149 | significant T-cell blastogenesis | 2430 | 18261 | high levels of interferon-gamma |  | 
CCCCCCCCCCCCCC(=O)O[C@H](CCCCCCCCCCC)CC(=O)N[C@H]1[C@H](OC[C@H]2OC(O)[C@H](NC(=O)C[C@@H](CCCCCCCCCCC)OC(=O)CCCCCCCCCCCCC)[C@@H](O)[C@@H]2O)O[C@H](CO)[C@@H](OP(=O)(O)O)[C@@H]1OC(=O)C[C@@H](CCCCCCCCCCC)OC(=O)CCCCCCCCCCCCC (stereo partly drawn) [Compound 54, 2-Deoxy-6-O-{2-deoxy-4-O-phosphono-2-[(3R)-3-tetradecanoyloxytetradecanamido]-3-O-[(3R)-3-tetradecanoyloxytetradecanoyl]-β-D-glucopyranosyl}-2-[(3R)-3-tetradecanoyloxytetradecanamido]-α/β-D-glucopyranose] | as effective |  | 32976 | significant T-cell blastogenesis |  | 36166 | high levels of interferon-gamma |  | 
CCCCCCCCCCCCCC(=O)O[C@H](CCCCCCCCCCC)CC(=O)N[C@H]1[C@H](OC[C@H]2OC(O)[C@H](NC(=O)C[C@@H](CCCCCCCCCCC)OC(=O)CCCCCCCCCCCCC)[C@@H](OCCC)[C@@H]2O)O[C@H](CO)[C@@H](OP(=O)(O)O)[C@@H]1OC(=O)C[C@@H](CCCCCCCCCCC)OC(=O)CCCCCCCCCCCCC (stereo partly drawn) [Compound 70, 2-Deoxy-6-O-{2-deoxy-2-[(3R)-3-tetradecanoyloxytetradecanamido]-4-O-phosphono-3-O-[(3R)-3-tetradecanoyloxytetradecanoyl]-β-D-glucopyranosyl}-3-O-propyl-2-[(3R)-3-tetradecanoyloxytetradecanamido]-α/β-D-glucopyranose] | as effective |  | 25034 | significant T-cell blastogenesis |  | 17321 | high levels of interferon-gamma |  | 
CCCCCCCCCCCCO[C@H](CCCCCCCCCCC)CC(=O)N[C@H]1[C@H](OC[C@H]2OC(O)[C@H](NC(=O)C[C@@H](CCCCCCCCCCC)OCCCCCCCCCCCC)[C@@H](OC(=O)C[C@H](O)CCCCCCCCCCC)[C@@H]2O)O[C@H](CO)[C@@H](OP(=O)(O)O)[C@@H]1OC(=O)C[C@@H](CCCCCCCCCCC)OCCCCCCCCCCCC (stereo partly drawn) [Compound 94, 2-Deoxy-6-O-{2-deoxy-4-O-phosphono-2-[(3R)-3-dodecyloxytetradecanamido]-3-O-[(3R)-3-dodecyloxytetradecanoyl]-β-D-glucopyranosyl}-3-O-[(3R)-3-hydroxytetradecanoyl]-2-[(3R)-3-dodecyloxytetradecanamido]-α/β-D-glucopyranose] |  |  |  | significant T-cell blastogenesis |  |  | low | 10882 | 2150
CCCCCCCCCCCCO[C@H](CCCCCCCCCCC)CC(=O)N[C@H]1[C@H](OC[C@H]2OC(O)[C@H](NC(=O)C[C@@H](CCCCCCCCCCC)OC(=O)C[C@@H](CCCCCCCCCCC)OCCCCCCCCCCCC)[C@@H](O)[C@@H]2O)O[C@H](CO)[C@@H](OP(=O)(O)O)[C@@H]1OC(=O)C[C@@H](CCCCCCCCCCC)OCCCCCCCCCCCC (stereo partly drawn) [Compound 102, 2-Deoxy-6-O-{2-deoxy-4-O-phosphono-2-[(3R)-3-dodecyloxytetradecanamido]-3-O-[(3R)-3-dodecyloxytetradecanoyl]-β-D-glucopyranosyl}-2-{(3R)-3-[(3R)-3-dodecyloxytetradecanoyloxy]-tetradecanamido}-α/β-D-glucopyranose] | similar; also recorded: as effective |  |  | significant T-cell blastogenesis |  |  | high levels of interferon-gamma | 13389 | 10587
CCCCCCCCCCCCO[C@H](CCCCCCCCCCC)CC(=O)O[C@H](CCCCCCCCCCC)CC(=O)N[C@H]1C(O)O[C@H](CO[C@@H]2O[C@H](CO)[C@@H](OP(=O)(O)O)[C@H](OC(=O)C[C@@H](CCCCCCCCCCC)OCCCCCCCCCCCC)[C@H]2NC(=O)C[C@H](O)CCCCCCCCCCC)[C@@H](O)[C@@H]1O (stereo partly drawn) [Compound 104, 2-Deoxy-6-O-{2-deoxy-4-O-phosphono-2-[(3R)-3-hydroxytetradecanamido]-3-O-[(3R)-3-dodecyloxytetradecanoyl]-β-D-glucopyranosyl}-2-{(3R)-3-[(3R)-3-dodecyloxytetradecanoyloxy]-tetradecanamido}-α/β-D-glucopyranose] | similar; also recorded: as effective |  |  | significant T-cell blastogenesis |  |  | high levels of interferon-gamma | 12635 | 14669
